Laboratory results: patent US12036199B1 (Dynamic Biologics Inc., priority 2023, dated 2024)
Values belong to the compound of their own block, whether it stands above or below them.

Tests used:
[1] = cited from earlier work
[2] = In vitro stability of 10 μM DB104 incubated in fresh human plasma (HRMS / LC-MS detection of DB104, intermediates and L-DOPA); format: in vitro ADME; conditions: for half-life at 10 μM: human, fresh human plasma; for degradation product of DB104 observed in human plasma: human plasma incubation of DB104
Description: (§1) 10 μM DB104 (DB104 is identified above and is one of the Derivatives of the present invention) was incubated in fresh plasma and phosphate buffer saline (PBS) in multiple aliquots, and each aliquot was divided into two equal halves at the following time points: 0, 1, 2, 4, 6, 24, 48, 72, 96, 120, 144, 168, 192, 216, 240, and 264 h. The first half was quenched with ACN:MeOH containing 1% formic acid and analyzed on the high-resolution mass spectroscopy (HRMS) to detect DB104 and all other possible intermediates. Labetalol was used as internal standard (IS). The other half was quenched with perchloric acid and analyzed on an AB Sciex 7500 mass spectrometer to detect L-DOPA. Dopamine-d4 will be used as IS.
(§2) Possible intermediates structures from the steps above are as follows:
(§3) DB104 took about 4 h and 1-4 h to get fully solubilized in human plasma and PBS, respectively. This was evident by initial increase in peak area followed by degradation. All peak area ratios were normalized to the max peak area ratio value observed. […] DB104M2 was not observed in either human plasma or PBS.

[3] = In vitro stability of 10 μM DB104 incubated in phosphate buffer saline (PBS); format: physicochemical; conditions: for half-life at 10 μM: phosphate buffer saline (PBS)
Description: as §1, §2, §3

[4] = Phase III clinical trials; cited from earlier work
[5] = cited from earlier work; remark: listed apart in the source

- time to get fully solubilized in human plasma ([2]; human plasma, initial increase in peak area): about 4 h
- half-life at 10 μM ([2]; 10 μM DB104, fresh human plasma, 0-264 h, read-out: In vitro half-life in human plasma (converted)): 13.1 ± 1.4 h
- half-life at 10 μM ([2]; human plasma, summary estimate, read-out: in vitro half-life estimated, human plasma (converted)): ~12 h
- time over which L-DOPA is formed at detectable amounts, PBS ([3]; L-DOPA formed from DB104 in PBS): up to 72 h
- time to get fully solubilized in PBS ([3]; PBS, initial increase in peak area): 1 to 4 h
- half-life at 10 μM ([3]; 10 μM DB104, PBS, 0-264 h, read-out: In vitro half-life in PBS (converted)): 12.4 ± 2.6 h
- half-life at 10 μM ([3]; PBS, summary estimate, read-out: in vitro half-life estimated, PBS (converted)): ~12 h
SMILES: CCCCCCCCCCCCOC(=O)[C@@H](N)Cc1ccc(OC(=O)CCCCCCCCCCC)c(OC(=O)CCCCCCCCCCC)c1 [DB104, (S)-4-(2-amino-3-(dodecyloxy)-3-oxopropyl)-1,2-phenylene didodecanoate]

- degradation product of DB104 observed in human plasma [2]: observed in PBS only
- degradation product of DB104 observed in PBS ([3]; PBS incubation of DB104): observed in PBS only
SMILES: CCCCCCCCCCCC(=O)Oc1ccc(CC(N)C(=O)O)cc1OC(=O)CCCCCCCCCCC (stereo not shown) [DB104M1]

- degradation product of DB104 observed in human plasma [2]: not observed
- degradation product of DB104 observed in PBS ([3]; PBS incubation of DB104): not observed
SMILES: CCCCCCCCCCCC(=O)Oc1cc(CC(N)C(=O)O)ccc1O (stereo not shown) [DB104M2]

- degradation product of DB104 observed in human plasma [2]: observed
- degradation product of DB104 observed in PBS ([3]; PBS incubation of DB104): observed
SMILES: CCCCCCCCCCCCOC(=O)C(N)Cc1ccc(O)c(O)c1 (stereo not shown) [DB104M3]

- degradation product of DB104 observed in human plasma [2]: observed
- degradation product of DB104 observed in PBS ([3]; PBS incubation of DB104): observed
- rank of degradant in PBS ([3]; PBS incubation of DB104): major degradant
SMILES: CCCCCCCCCCCCOC(=O)C(N)Cc1ccc(O)c(OC(=O)CCCCCCCCCCC)c1 (stereo not shown) [DB104M4]

The next lines start with the compound.

SMILES: C[C@@](Cc1ccc(O)c(O)c1)(NN)C(=O)O [Carbidopa]
- reduction of the amount of levodopa required to produce a given response ([1]; carbidopa administered with levodopa): 75%

SMILES: CCOC(=O)[C@@H](N)Cc1ccc(O)c(O)c1 [Etilevodopa]
- efficacy compared with Levodopa [4]: less efficacious than Levodopa

SMILES: N[C@@H](Cc1ccc(O)c(O)c1)C(=O)O [Levodopa, (S)-2-amino-3-(3,4-dihydroxyphenyl)propanoic acid, reference compound]
- degradation product of DB104 observed in human plasma [2]: observed
- degradation product of DB104 observed in PBS ([3]; PBS incubation of DB104): observed
- Plasma half-life of levodopa alone [5]: ~0.833 h

SMILES: CCN(CC)C(=O)/C(C#N)=C/c1cc(O)c(O)c([N+](=O)[O-])c1 [entacapone]
- increase of levodopa plasma exposure ([1]; 200 mg entacapone co-administered with levodopa/carbidopa): 35-40%
